Some results are limits rather than exact numbers.

For one data set, the target named is CDK1-CYCLIN B (Homo sapiens (Human), UniProt P06493). Kind of data set: CDK protein kinase inhibition by the ADP-Glo Assay, CDK1-CYCLIN B. The note with it: 1000 μM ATP. The class given is biochemical. Here is the method: (§1) This ADP-Glo assay measures ADP formed from a kinase reaction and indirectly quantifies the phosphorylation of peptide substrates by the CDK/cyclin protein complexes. The typical assays were carried out in Nanosyn by combining kinase/cyclin complexes, substrates, compounds, and cofactors (ATP and Mg2+) in a well of a 384-well microtiter plate (Coming 3824) and incubating at 22° C. (Table 4). At the end of the incubation, the reaction is quenched, and conversion is detected by luminescence using the Promega ADP-Glo™ Kinase Assay kit (catalog #V9102). Briefly, 5 μL of 1× enzyme and substrate buffer (or control), 50 nL of 100× compound, and 0.5 μL of 10 mM ATP were sequentially added to a well of a 384-well plate.
(§2) The Final assay buffer mixture contains: 100 mM HEPES, pH 7.5, 0.1% BSA, 0.01% Triton X-100, 1 mM DTT, 5 mM MgCl2, 10 μM Sodium Orthovanadate, 10 μM Beta-Glycerophosphate, 1000 μM Ultra Pure ATP (provided in the Promega ADP-Glo™ Kinase Assay kit), and 1% DMSO (from compound).
(§3) Upon completion, 5 μL of the ADP Glo reagent was added to each well and the plate was further incubated at room temperature for 45 min. 10 μL of the Kinase Detection Reagent was subsequently added to each well. After 10 min of incubation, the plate was read and analyzed on the BioTek Synergy microplate reader using BioTek Gen5 software.
For orientation: ADP-Glo turns the ADP formed in a reaction into a luminescent signal.

A further data set deals with CDK2-CYCLIN E1 (Homo sapiens (Human), UniProt P24941). The experiment in a line: CDK protein kinase inhibition by the ADP-Glo Assay, CDK2-CYCLIN E1. The class given is biochemical. Particulars: 1000 μM ATP, read-out: CDK2-CYCLIN E, IC50. As to the method:
as §1, §2, §3

The target in the next data set is CDK4-CYCLIN D1 (Homo sapiens (Human), UniProt P11802). The experiment in a line: CDK protein kinase inhibition by the ADP-Glo Assay, CDK4-CYCLIN D1. The class given is biochemical. Particulars: for IC50: ADP-Glo, 1000 μM ATP; for Selectivity CDK4 vs CDK1 / Selectivity CDK4 vs CDK2 / Selectivity CDK4 vs CDK6 / Selectivity CDK4 vs CDK9: ratio of recombinant kinase IC50s; for Selectivity CDK4 vs CDK1: CDK1 over CDK4; for Selectivity CDK4 vs CDK2: CDK2 over CDK4; for Selectivity CDK4 vs CDK6: CDK6 over CDK4; for Selectivity CDK4 vs CDK9: CDK9 over CDK4. Here is the method:
as §1, §2, §3

For another data set, the target named is CDK6-CYCLIN D3 (Homo sapiens (Human), UniProt Q00534). Kind of data set: CDK protein kinase inhibition by the ADP-Glo Assay, CDK6-CYCLIN D3. The class given is biochemical. The note with it: 1000 μM ATP. Here is the method: as §1, §2, §3
The target of the next data set is CDK9-CYCLIN T1 (Homo sapiens (Human), UniProt P50750). Kind of data set: CDK protein kinase inhibition by the ADP-Glo Assay, CDK9-CYCLIN T1. The class given is biochemical. The note with it: 1000 μM ATP. Here is the method:
as §1, §2, §3

A short description of a further data set: in vitro. The note with it: both, human, hepatocytes.
Data set [1] in a line: Human hepatocyte stability assay. Particulars: human hepatocytes, 1 μM, 120 min incubation.
Procedure: (§4) Human hepatocyte stability assay was performed at Pharmaron. Human hepatocytes from mixed genders were purchased from BioIVT (Product #X008001). Compounds and positive control were incubated with human hepatocytes. Verapmil was used as a positive control. […] An aliquot of 100 μL of the supernatant was diluted by 100 μL ultra-pure water, and the mixture was used for LC/MS/MS analysis. The percent of parent remaining, intrinsic clearance (CLint) and tr2 were calculated.

Sequence of CDK4-CYCLIN D1 (P11802 whole entry): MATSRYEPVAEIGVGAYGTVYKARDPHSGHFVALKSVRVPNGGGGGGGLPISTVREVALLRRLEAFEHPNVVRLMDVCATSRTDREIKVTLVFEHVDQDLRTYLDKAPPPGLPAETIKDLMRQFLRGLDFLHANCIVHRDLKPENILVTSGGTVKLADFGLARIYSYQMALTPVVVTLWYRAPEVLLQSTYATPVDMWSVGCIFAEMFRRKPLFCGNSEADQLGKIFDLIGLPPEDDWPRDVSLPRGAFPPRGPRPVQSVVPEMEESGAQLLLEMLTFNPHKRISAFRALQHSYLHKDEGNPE
Sequence of CDK4-CYCLIN D1 (P24385 whole entry partner): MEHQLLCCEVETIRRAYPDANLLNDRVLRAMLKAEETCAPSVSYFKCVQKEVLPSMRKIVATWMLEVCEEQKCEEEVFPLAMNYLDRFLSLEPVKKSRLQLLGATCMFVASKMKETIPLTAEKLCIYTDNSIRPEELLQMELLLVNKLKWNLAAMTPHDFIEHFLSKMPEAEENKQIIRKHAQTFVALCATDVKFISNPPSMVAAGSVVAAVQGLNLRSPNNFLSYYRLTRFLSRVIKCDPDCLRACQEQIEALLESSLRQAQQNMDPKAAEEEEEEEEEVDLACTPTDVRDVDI
Sequence of CDK9-CYCLIN T1 (P50750 whole entry): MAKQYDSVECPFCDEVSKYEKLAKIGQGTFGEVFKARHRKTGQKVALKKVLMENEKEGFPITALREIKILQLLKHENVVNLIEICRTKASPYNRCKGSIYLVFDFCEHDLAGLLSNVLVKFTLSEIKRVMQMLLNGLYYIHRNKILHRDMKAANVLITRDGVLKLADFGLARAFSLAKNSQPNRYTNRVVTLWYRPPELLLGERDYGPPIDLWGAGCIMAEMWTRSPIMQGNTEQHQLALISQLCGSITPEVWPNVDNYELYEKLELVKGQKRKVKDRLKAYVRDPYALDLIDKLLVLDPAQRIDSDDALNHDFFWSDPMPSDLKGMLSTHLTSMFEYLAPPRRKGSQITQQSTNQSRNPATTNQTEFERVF
Sequence of CDK9-CYCLIN T1 (O60563 whole entry partner): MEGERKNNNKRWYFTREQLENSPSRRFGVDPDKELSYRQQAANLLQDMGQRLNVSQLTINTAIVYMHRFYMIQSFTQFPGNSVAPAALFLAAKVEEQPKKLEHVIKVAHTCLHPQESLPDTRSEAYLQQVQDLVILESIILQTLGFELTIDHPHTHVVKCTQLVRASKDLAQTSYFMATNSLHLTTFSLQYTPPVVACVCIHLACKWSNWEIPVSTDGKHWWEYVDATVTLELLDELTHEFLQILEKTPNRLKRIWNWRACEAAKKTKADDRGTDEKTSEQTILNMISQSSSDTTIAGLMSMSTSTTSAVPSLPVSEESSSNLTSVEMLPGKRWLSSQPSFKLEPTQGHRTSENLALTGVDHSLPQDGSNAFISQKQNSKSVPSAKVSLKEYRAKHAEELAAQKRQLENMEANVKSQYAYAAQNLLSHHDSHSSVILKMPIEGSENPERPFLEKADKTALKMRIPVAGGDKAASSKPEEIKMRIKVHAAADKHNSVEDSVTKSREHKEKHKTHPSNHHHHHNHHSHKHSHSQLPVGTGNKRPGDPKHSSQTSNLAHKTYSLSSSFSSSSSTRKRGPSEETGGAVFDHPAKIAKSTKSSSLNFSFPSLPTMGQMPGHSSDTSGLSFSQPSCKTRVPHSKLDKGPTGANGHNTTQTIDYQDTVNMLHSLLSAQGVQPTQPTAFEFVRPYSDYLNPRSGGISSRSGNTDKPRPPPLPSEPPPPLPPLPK
Sequence of CDK6-CYCLIN D3 (Q00534 whole entry): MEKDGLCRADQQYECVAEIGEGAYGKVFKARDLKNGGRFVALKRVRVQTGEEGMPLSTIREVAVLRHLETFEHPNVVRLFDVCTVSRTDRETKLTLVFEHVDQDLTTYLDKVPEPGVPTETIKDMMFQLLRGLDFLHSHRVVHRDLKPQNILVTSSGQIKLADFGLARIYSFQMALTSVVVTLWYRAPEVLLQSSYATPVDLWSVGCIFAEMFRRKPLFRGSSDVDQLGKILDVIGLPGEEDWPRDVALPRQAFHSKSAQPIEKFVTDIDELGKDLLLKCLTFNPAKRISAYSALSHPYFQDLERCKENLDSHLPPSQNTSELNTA
Sequence of CDK6-CYCLIN D3 (P30281 whole entry partner): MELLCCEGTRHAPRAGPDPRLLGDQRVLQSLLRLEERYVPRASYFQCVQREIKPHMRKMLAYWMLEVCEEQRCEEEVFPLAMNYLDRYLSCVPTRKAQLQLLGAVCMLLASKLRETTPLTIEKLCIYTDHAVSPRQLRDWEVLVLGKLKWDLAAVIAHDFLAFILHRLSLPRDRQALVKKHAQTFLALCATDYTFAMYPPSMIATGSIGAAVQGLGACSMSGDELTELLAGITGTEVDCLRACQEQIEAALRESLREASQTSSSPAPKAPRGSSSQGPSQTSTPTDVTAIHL
Sequence of CDK1-CYCLIN B (P06493 whole entry): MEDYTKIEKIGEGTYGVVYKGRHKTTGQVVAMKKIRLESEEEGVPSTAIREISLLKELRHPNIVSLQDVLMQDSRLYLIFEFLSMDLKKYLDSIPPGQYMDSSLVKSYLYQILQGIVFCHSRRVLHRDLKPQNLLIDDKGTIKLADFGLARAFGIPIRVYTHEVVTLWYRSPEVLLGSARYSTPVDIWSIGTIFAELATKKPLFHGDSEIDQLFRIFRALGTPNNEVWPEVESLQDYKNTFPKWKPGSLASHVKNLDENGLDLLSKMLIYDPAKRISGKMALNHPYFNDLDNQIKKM
Sequence of CDK1-CYCLIN B (P14635 whole entry partner): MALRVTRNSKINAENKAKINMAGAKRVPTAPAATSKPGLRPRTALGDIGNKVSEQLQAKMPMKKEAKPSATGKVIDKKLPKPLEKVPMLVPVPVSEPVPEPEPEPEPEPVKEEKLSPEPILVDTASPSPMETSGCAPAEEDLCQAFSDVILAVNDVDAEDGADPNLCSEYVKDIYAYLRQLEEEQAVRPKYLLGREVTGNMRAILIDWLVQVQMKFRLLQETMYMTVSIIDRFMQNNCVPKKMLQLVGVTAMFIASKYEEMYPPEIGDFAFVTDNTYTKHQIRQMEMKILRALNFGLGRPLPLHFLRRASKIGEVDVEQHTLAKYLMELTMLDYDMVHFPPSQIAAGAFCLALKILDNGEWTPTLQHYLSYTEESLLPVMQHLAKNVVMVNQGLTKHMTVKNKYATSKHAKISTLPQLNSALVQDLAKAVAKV
Procedure for in vitro: as §4

Take `CC(C)n1c(C(C)(C)O)nc2c(F)cc(-c3nc(N[C@@H]4C[C@H]5CO[C@H](O5)[C@H]4O)ncc3Cl)cc21` [Compound 1, (1S,3R,4S,5R)-3-((5-chloro-4-(4-fluoro-2-(2-hydroxypropan-2-yl)-1-isopropyl-1H-benzo[d]imidazol-6-yl)pyrimidin-2-yl)amino)-6,8-dioxabicyclo[3.2.1]octan-4-ol]: the IC50 on CDK1-CYCLIN B came to 26.2 µM. Besides, the IC50 on CDK2-CYCLIN E1 was above 30 µM. Besides, on CDK4-CYCLIN D1, the 50% inhibitory concentration (IC50) was 0.00315 µM, the “Selectivity CDK4 vs CDK1” value is 8,317, the “Selectivity CDK4 vs CDK2” value is listed as >9,524 and the “Selectivity CDK4 vs CDK6” value is reported as 20. In addition, the “Selectivity CDK4 vs CDK9” value on CDK4-CYCLIN D1 was 1,549. Besides, at CDK4-CYCLIN D1 (versus PF-07220060), the “Selectivity for CDK4 over CDK1, CDK2, CDK6 and CDK9 compared with the reference compound” value is recorded as “much better selectivity”. For the same compound, the half-maximal inhibitory concentration (IC50) at CDK6-CYCLIN D3 was 0.0638 µM. Also, the IC50 at CDK9-CYCLIN T1 was found to be 4.88 µM. Moreover, where the note is “both, human, 1 μM”, the “Hepatic Extraction Ratio (ER)” value is 0.23 and the “Predicted Hepatic CLH” value is listed as 4.9 mL/min/kg. The “In vitro CLint (μL/min/10^6 cell)” value (human, hepatocytes) is 2.5 μL/min/10^6 cell. Besides, in “in vitro”, the intrinsic clearance (CLint scaled) at 1 μM amounted to 6.4 mL/min/kg and the half-life at 1 μM was 9.26 h.

`CC(C)n1c(C(C)(C)O)nc2c(F)cc(-c3nc(N[C@@H]4CCOC[C@H]4O)ncc3Cl)cc21` [Reference Compound, PF-07220060, reference compound]: the IC50 at CDK1-CYCLIN B is 8.59 µM; at CDK2-CYCLIN E1, above 30 µM; on CDK4-CYCLIN D1, 0.00437 µM; on CDK6-CYCLIN D3, 0.0765 µM; at CDK9-CYCLIN T1 it was 1.88 µM. On CDK4-CYCLIN D1, the “Selectivity CDK4 vs CDK1” value is 1,966. Besides, the “Selectivity CDK4 vs CDK2” value on CDK4-CYCLIN D1 is >6,865. Besides, the “Selectivity CDK4 vs CDK6” value on CDK4-CYCLIN D1 was found to be 18. Also, the “Selectivity CDK4 vs CDK9” value at CDK4-CYCLIN D1 stood at 430. The “Scaled-up CLint” value (hepatocytes) came to 28.6 mL/min/kg. Moreover, the “In vitro CLint (μL/min/10^6 cell)” value (human, hepatocytes) is on record as 11.3 μL/min/10^6 cell. Further, the “t1/2” value in data set [1] worked out at 2.057 h.

Usually IC50 stands for the concentration that gives 50% inhibition. What is called CLint scaled is a measure of how fast metabolising enzymes remove a compound, apart from limits set by blood flow. Read a high CLint scaled as rapid turnover. For orientation: half-life means the time needed for the level to fall by half in the phase considered. A high value points to slow decline.
